Results on two compounds are retold here after patent US20190240225A1, “COMBINATION OF A BCL-2 INHIBITOR AND A MCL-1 INHIBITOR, USES AND PHARMACEUTICAL COMPOSITIONS THEREOF” (LES LABORATOIRES SERVIER, priority 2016, published 2019).

Bounds are passed on as bounds.

One experiment deals with neuroblastoma cell lines. The experiment is described as follows: CellTiterGlo viability, panel of neuroblastoma cell lines. It counts as cell-based. The note with it: all neuroblastoma cell lines tested; single agent. On the procedure: In addition, all media contained penicillin (100 IU/ml), streptomycin (100 μg/ml) and L-glutamine (2 mM). Cell lines were cultured at 37° C. in a humidified atmosphere containing 5% CO2 and expanded in T-150 flasks. In all cases cells were thawed from frozen stocks, expanded through ≥1 passage using appropriate dilutions, counted and assessed for viability using a CASY cell counter prior to plating 150 ul/well at the densities indicated in Table 6 into 96-well plates. All cell lines were determined to be free of mycoplasma contamination in-house.
Stock solutions of compounds were prepared at a concentration of 5 mM in DMSO and stored at −20° C. […] Effects of the compounds on cell viability were assessed after 2 or 3 days of incubation (as indicated in Table 6) at 37° C./5% CO2 by quantification of cellular ATP levels using CellTiterGlo at 150 μL reagent/well. […] Luminescence was quantified on a multipurpose platereader. Single agent IC50s were calculated using standard four-parametric curve fitting. […]
Identical experiments were performed to assess potential synergistic interactions between compound combinations. Synergy Score were assessed using the Excess Inhibition 2D matrix according to the Loewe additivity model (Lehar et al, Nat Biotechnol. 2009 July; 27(7): 659-666). […]
In general terms: In ATP-based viability assays light output follows the ATP content of the culture.

Experiment [1] has as its system Karpas 422 human B-cell non-Hodgkin's lymphoma xenografts. The experiment is described as follows: Lymphoma Karpas422 xenograft model in rats. It counts as in vivo. To be noted: day 34; p<0.05; Compound 3 20 mg/kg iv QW; Compound 1 150 mg/kg po QW. The protocol: Karpas 422 human B-cell non-Hodgkin's lymphoma (NHL) cell line was established from the pleural effusion of a patient with chemotherapy-resistant NHL. The cells were obtained from the DSMZ cell bank and cultured in RPMI-1640 medium (BioConcept Ltd. Amimed,) supplemented with 10% FCS (BioConcept Ltd. Amimed), 2 mM L-glutamine (BioConcept Ltd. Amimed), 1 mM sodium pyruvate (BioConcept Ltd. Amimed) and 10 mM HEPES (Gibco) at 37° C. in an atmosphere of 5% CO2 in air. Cells were maintained between 0.5 and 1.5×10^6 cells/mL. […]
Tumour growth was monitored regularly post cell inoculation and animals were randomised into treatment groups (n=5) when tumour volume reached appropriate volume. During the treatment period tumour volume was measured about twice a week using calipers. Tumour size, in mm^3, was calculated from: (L×W2×π/6). […]
Tumour data were analyzed statistically using GraphPad Prism 7.00 (GraphPad Software). If the variances in the data were normally distributed, the data were analyzed using one-way ANOVA with post hoc Dunnett's test for comparison of treatment versus control group. […]
As a measure of efficacy the % T/C value is calculated at the end of the experiment according to: […]
Tumour regression was calculated according to: […]

In experiment [2] the test system is Acute Myeloid Leukemia (AML) cell lines. Put plainly: CellTiterGlo viability, panel of AML cell lines. It counts as cell-based. To be noted: all 5 AML cell lines of combination (c); single agent; read-out: IC50s. On the procedure: In addition, all media contained penicillin (100 IU/ml), streptomycin (100 μg/ml) and L-glutamine (2 mM).
Cell lines were cultured at 37° C. in a humidified atmosphere containing 5% CO2 and expanded in T-150 flasks. In all cases cells were thawed from frozen stocks, expanded through ≥1 passage using appropriate dilutions, counted and assessed for viability using a CASY cell counter prior to plating 150 ul/well at the densities indicated in Table 1 into 96-well plates. All cell lines were determined to be free of mycoplasma contamination in-house.
Stock solutions of compounds were prepared at a concentration of 5 mM in DMSO and stored at −20° C.
In order to analyse the activity of the compounds as single agents, cells were seeded and treated with nine 2-fold serial dilutions of each compound dispensed individually directly into the cell assay plates. Effects of the compounds on cell viability were assessed after 3 days of incubation at 37° C./5% CO2 by quantification of cellular ATP levels using CellTiterGlo at 75 μL reagent/well. All the experiments were performed in triplicates. Luminescence was quantified on a multipurpose plate reader. Single agent IC50s were calculated using standard four-parametric curve fitting. […]
In order to analyse the activity of the compounds in combination, cells were seeded and treated with seven or eight 3.16-fold serial dilutions of each compound dispensed, either individually or in all possible permutations in a checkerboard fashion, directly into the cell assay plates as indicated in FIG. 9. Effects of the single agents as well as their checkerboard combinations on cell viability were assessed after 3 days of incubation at 37° C./5% CO2 by quantification of cellular ATP levels using CellTiterGlo at 75 μL reagent/well. […] Luminescence was quantified on a multipurpose plate reader.
Potential synergistic interactions between compound combinations were assessed using the Excess Inhibition 2D matrix according to the Loewe additivity model and are reported as Synergy Score (Lehar et al, Nat Biotechnol. 2009 July; 27(7): 659-666). […]

Turning to `Cl.O=C(c1cc(-c2cc3c(cc2C(=O)N2Cc4ccccc4C[C@H]2CN2CCOCC2)OCO3)n2c1CCCC2)N(c1ccccc1)c1ccc(O)cc1` [Compound 1, HCl, N-(4-hydroxyphenyl)-3-{6-[((3S)-3-(4-morpholinylmethyl)-3,4-dihydro-2(1H)-isoquinolinyl)carbonyl]-1,3-benzodioxol-5-yl}-N-phenyl-5,6,7,8-tetrahydro-1-indolizine carboxamide hydrochloride], the IC50 with neuroblastoma cell lines was more than 1000 nM.
For the compound `COc1ccccc1-c1nccc(COc2ccccc2C[C@@H](Oc2ncnc3sc(-c4ccc(F)cc4)c(-c4ccc(OCCN5CCN(C)CC5)c(Cl)c4C)c23)C(=O)O)n1` [Compound 3, (2R)-2-{[(5Sa)-5-{3-chloro-2-methyl-4-[2-(4-methylpiperazin-1-yl)ethoxy]phenyl}-6-(4-fluorophenyl)thieno[2,3-d]pyrimidin-4-yl]oxy}-3-(2-{[2-(2-methoxyphenyl)pyrimidin-4-yl]methoxy}phenyl)propanoic acid], the “tumour response versus vehicle group” value in experiment [1] was “significantly different from the vehicle group”. Also, in experiment [2], the IC50 is less than 200 nM.
